The subject of one series is solid tumor (EAT cells). Kind of series: Anti-cancer activity, solid tumor model (EAT cells inoculated subcutaneously). The series is classed as in vivo, mice. Particulars: 5-FU 20 mg/kg/day. On the procedure: (§1) We used two mice models (Tomomatsu, Morita, Nagai, Shiwaku, Ichiki and Yonoki: Acta Med. Univ. Kagoshima. 17:99, 1975), i.e., (a) Ehrlich's ascites tumor (EAT) model and (b) a solid tumor model in which EAT cells were innoculated subcutaneously. In (a), 10^7 tumor cells were injected I.P. in a mouse with the body weight of 20 g. In (b), the same amount of tumor cells were injected subcutaneously in a mouse of similar weight. After 21 days, we measured several parameters: (i) the change of body weight; (ii) average time to their death, from which we measure extension of life span, and (iii) survival rate.
(§2) In the solid tumor model, we measured the extension of the life span and the survival rate. […] In the Experiment 1, from day 4 until day 13 (for ten days), anti-cancer drugs were administered. […] In the combination therapy, both drugs were administered simultaneously at their respective doses. […] With the 5-FU, they died in an average of 20.3 days. […] In the tumor model, similar tendency was observed.
(§3) In the Experiment 2, the amount of the oligomer was cut down to 1 mg/kg/day to see whether we could still observe anti-cancer activity.

In the next series the test system is mice. Nature of the series: Reduction of toxic side-effect of 5-FU by OC-5186 (Experiment 2). The series is classed as in vivo. On the procedure:
as §3

For series [1], the system named is Ehrlich's ascites tumor (EAT). Nature of the series: Anti-cancer activity, Ehrlich's ascites tumor (EAT) model. It counts as in vivo, mice. Conditions: 5-FU 20 mg/kg/day. Here is the method: as §1
In the ascites tumor model, an increase of body weight is related to the increase in ascites. When the animal dies, we collect the ascites fluid and measure the number of tumor cells found in the ascites.
as §2, §3

Series [2] in a line: Anti-oxidant activity and protection from ischemic trauma (summary statement).
The test system of series [3] is lipid peroxidation (TBAR) in rat head/brain homogenate. Kind of series: Inhibition of TBAR production (lipid peroxidation) in ischemic rat brain homogenate, drug added in vitro. It counts as biochemical. Conditions: added in vitro before exposure to air (FIG. 3, FIG. 4). The text has this: (A) When cell membranes are exposed to ischemic or hypoxic insult, lipid peroxidation takes place. The degree of peroxidation can be measured by the production of thiobarbiturate reactive substances (TBAR). We have developed a simple assay method; we decapitate the rat and keep the head under a hypoxic condition for thirty minutes at 37 degrees and then homogenize it, then expose the homogenate to air for sixty minutes and measure the production of TBAR.

Series [4] in a line: Superoxide scavenging activity, adenochrome method. It counts as biochemical. Conditions: 50 ug/ml each; absorbance at 480 nm (FIG. 1). From the text:
From the change of the slope, we can estimate the activity of scavenging action.

Series [5] concerns FCR-3 strain P. falciparum. Nature of the series: Growth inhibition of P. falciparum in in vitro culture. It counts as cell-based. Conditions: 50 ug/ml, forty-eight hours. On the procedure:
The FCR-3 strain P. falciparum was used. Blood-stage parasites were cultured in RPMI-1640 (GIBCO Laboratories, Chagrin Falls, Ohio) in 96 well flat bottomed plates (Costar; Cambridge, Mass.) using the candle jar method described by Jensen and Trager (J. Parasitology 63:883,1977) and modified by Grun and Weidanz (J. Parasitology 73:384, 1987). Parasitemia was estimated on GIEMSA stained films of cultures. For drug administration, desired amounts of chemicals were added to an individual wells of 96 well plates. Forty-eight hours later, parasitemia was estimated and the degree of growth inhibition was determined.

The test system of another series is sickle red blood cells. Nature of the series: Formation of irreversibly sickled cells upon sickling-unsickling cycling in vitro. Conditions: 10 ug/ml. It counts as cell-based. The text has this:
The inventor previously developed the method to produce irreversibly sickled cells (ISC, which are irreversibly denatured sickle cells) by exposing sickle red blood cells to a repeated sickling-unsickling cycling in vitro. He used this system to determine the efficacy of drugs in protecting cell membranes (Ohnishi, Br. J. Haematol. 55:665-671, 1983; Ohnishi et al. Biochim. Biophys. Acta 886:119-129, 1986). […] These heavy cells were collected, the amount measured, and the percentage of production calculated.

In a further series the test system is brain ischemia. Kind of series: Survival rate after global brain ischemia. It counts as in vivo, Sprague-Dawley rats. Conditions: 9 mg/kg; OC-5186 injected I.P. thirty minutes prior to ischemia; control 8 out of 8 died within 2 days. On the procedure:
Adult, male Sprague-Dawley rats, weighing 300 to 350 grams, were used to prepare global ischemia. Anesthesia was induced and maintained with forane in 70% nitrous oxide-30% oxygen. After trachea was intubated, anesthesia was maintained using a ventilator. Both common carotid arteries were exposed and occluded by microaneurysmal clips. Then 12 to 14 ml of blood was withdrawn from the tail vein to bring the blood pressure to 30 mm Hg, which caused global ischemia. After twenty minutes of ischemia, blood was reinfused, clips were removed to induce recirculation. After twenty minutes of recirculation, the rat was decapitated, the brain was removed in ice-cold saline and then homogenized for TBAR measurement and spin trap measurement. For the measurement of survival rate, the wound was sutured and the animal recovered. The animal was returned to its cage. They were then observed for the survival rate. […] In this experiment, the brain was homogenized in the presence of 50 mM tert-butyl-(alpha)-phenylnitrone and the homogenate was introduced to electron spin resonance spectrophotometer.
In control experiment, where no drug was introduced, 8 out of 8 animals died within 2 days. […] Ascorbic acid (9 mg/kg) had no effect.

Where only a bound is given, the exact number is not on record here.

Take `O=c1[nH]cc(F)c(=O)[nH]1` [5-FU, 5-fluorouracil]: the “Solid tumor weight (on 21 days)” value with solid tumor (EAT cells) (Experiment 1, day 4 to day 13, OC-5186 10 mg/kg/day, combination at respective doses, control 1.2 g) was 0.70 g. Moreover, in the series with solid tumor (EAT cells) (Experiment 2, 23 days, OC-5186 1 mg/kg/day, combination, control 25%), the “21 day surv., solid tumor model” value is listed as 40%. The “Av. Surv., solid tumor model” value in the series on solid tumor (EAT cells) (Experiment 2, 23 days, OC-5186 1 mg/kg/day, combination, control 23.2 days) was 26 days. Also, in the series with mice (administered for 23 days), the “survival of chemotherapy / toxicity” value is “all animals die if it is administered for 23 days”. For the same molecule, the “tolerated duration of 5-FU administration without OC-5186” value with mice (without OC-5186) is recorded as ≤ 10 days. The “21 day survival, EAT model” value worked out at 40% in series [1] (Experiment 1, day 4 to day 13, OC-5186 10 mg/kg/day, combination at respective doses, control 25%) and 40% in series [1] (Experiment 2, 23 days, OC-5186 1 mg/kg/day, combination, control 0%). In addition, the “Average survival, EAT model” value is 20.3 days in series [1] (Experiment 1, day 4 to day 13, OC-5186 10 mg/kg/day, combination at respective doses, control 17.0 days) and 20.3 days in series [1] (Experiment 2, 23 days, OC-5186 1 mg/kg/day, combination, control 15.3 days).

Regarding `CCCCC[C@H](O)/C=C/C1=C(C/C=C\CCCC(=O)OC[C@H](O)[C@H]2OC(=O)C(O)=C2O)C(=O)CC1` [OC-5181], the anti-oxidant activity entry in [2] is on record as “strong anti-oxidant activity”. The “inhibition of TBAR production / antioxidant activity in vitro” value in series [3] was “antioxidant activity comparable to free acid type prostaglandin oligomers, OC-2186”. Besides, in series [4], the “superoxide-induced adenochrome formation (slope of the curve)” value is listed as “the slope of the curve decreased”.

Regarding `O=C1O[C@H]([C@@H](O)CO)C(O)=C1O` [Ascorbic acid], the “inhibition of growth of P. falciparum (in words)” value in series [5] is given as “did not inhibit the growth”. In addition, the “inhibition of formation of irreversibly denatured cells (in words)” value in the series on sickle red blood cells is recorded as “did not inhibit the formation”. In addition, in the series on brain ischemia, the survival after ischemia result is on record as “had no effect”.

The values are drawn from patent US5114972A, “Synthesis and uses of new ascorbic acid derivatives which have anti-oxidant and anti-cancer activities” (priority 1990, dated 1992).
